“Also recorded” adds a separate entry of the source.
Assays:
HL-60 cells = assay: HL-60 cell differentiation (nitro blue tetrazolium reduction); type: cell-based, human; details: FIG. 2; for EC50: HL-60 cells, 4 days
Experimental: The study drugs were dissolved in ethanol and the concentrations determined using UV spectrophotometry. Serial dilutions were prepared so that a range of drug concentrations could be tested without changing the final concentration of ethanol (≦0.2%) present in the cell cultures.
Human promyelocytic leukemia (HL60) cells were grown in RPMI-1640 medium containing 10% fetal bovine serum. The cells were incubated at 37° C. in the presence of 5% CO2.
HL60 cells were plated at 1.2×10^5 cells/ml. Eighteen hours after plating, cells in duplicate were treated with drug. Four days later, the cells were harvested and a nitro blue tetrazolium reduction assay was performed (Collins et al., 1979; J. Exp. Med. 149:969-974). The percentage of differentiated cells was determined by counting a total of 200 cells and recording the number that contained intracellular black-blue formazan deposits. Verification of differentiation to monocytic cells was determined by measuring phagocytic activity (data not shown).

Sprague-Dawley rats [1] = assay: Bone calcium mobilization (serum calcium) in vitamin D-deficient rats; type: in vivo, rat; details: FIG. 4; for bone calcium mobilization (serum calcium levels): dose not given, vitamin D-deficient rats on 0.02% Ca diet; for bone calcium mobilization: rats on 0.02% Ca diet
Experimental: (§1) Intestinal Calcium Transport and Bone Calcium Mobilization
(§2) Male, weanling Sprague-Dawley rats were placed on Diet 11 (0.47% Ca) diet+AEK oil for one week followed by Diet 11 (0.02% Ca)+AEK oil for 3 weeks. The rats were then switched to a diet containing 0.47% Ca for one week followed by two weeks on a diet containing 0.02% Ca. Dose administration began during the last week on 0.02% calcium diet. Four consecutive ip doses were given approximately 24 hours apart. Twenty-four hours after the last dose, blood was collected from the severed neck and the concentration of serum calcium determined as a measure of bone calcium mobilization. The first 10 cm of the intestine was also collected for intestinal calcium transport analysis using the everted gut sac method.

Sprague-Dawley rats [2] = assay: Intestinal calcium transport (everted gut sac) in vitamin D-deficient rats; type: in vivo, rat; details: FIG. 5; for intestinal calcium transport: everted gut sac
Experimental: as §1, §2

[3] = target: T1, full-length recombinant rat vitamin D receptor (Rattus norvegicus, UniProt P13053); assay: Vitamin D receptor competitive binding with [3H]-1,25(OH)2D3; details: FIG. 1
T1 construct: Full-length recombinant rat receptor was expressed in E. coli; histidine tag (C); made in house; host or cells: E. coli BL21 (DE3) Codon Plus RIL
T1 sequence (P13053 1-423): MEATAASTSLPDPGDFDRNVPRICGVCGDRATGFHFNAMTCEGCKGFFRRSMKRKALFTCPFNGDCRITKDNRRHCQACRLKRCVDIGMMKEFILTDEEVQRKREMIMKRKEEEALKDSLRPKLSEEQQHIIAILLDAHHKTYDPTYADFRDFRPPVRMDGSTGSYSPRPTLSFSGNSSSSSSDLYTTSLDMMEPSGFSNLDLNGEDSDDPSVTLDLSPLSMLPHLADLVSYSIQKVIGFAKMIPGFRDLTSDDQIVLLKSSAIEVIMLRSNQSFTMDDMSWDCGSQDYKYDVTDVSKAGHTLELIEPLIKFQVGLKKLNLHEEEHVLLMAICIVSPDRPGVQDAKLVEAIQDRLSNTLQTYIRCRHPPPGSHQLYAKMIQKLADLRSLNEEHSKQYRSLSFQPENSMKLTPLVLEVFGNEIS
Excerpt: Vitamin D Receptor Binding
Full-length recombinant rat receptor was expressed in E. coli BL21 (DE3) Codon Plus RIL cells and purified to homogeneity using two different column chromatography systems. The first system was a nickel affinity resin that utilizes the C-terminal histidine tag on this protein. The protein that was eluted from this resin was further purified using ion exchange chromatography (S-Sepharose Fast Flow). Aliquots of the purified protein were quick frozen in liquid nitrogen and stored at −80° C. until use. For use in binding assays, the protein was diluted in TEDK50 (50 mM Tris, 1.5 mM EDTA, pH 7.4, 5 mM DTT, 150 mM KCl) with 0.1% Chaps detergent. The receptor protein and ligand concentration were optimized such that no more than 20% of the added radiolabeled ligand was bound to the receptor.
Radiolabeled and unlabeled ligands were added to 100 mcl of the diluted protein at a final ethanol concentration of ≦10%, mixed and incubated overnight on ice to reach binding equilibrium. The following day, 100 mcl of hydroxylapatite slurry (50%) was added to each tube and mixed at 10-minute intervals for 30 minutes. […] After the final wash, the pellets were transferred to scintillation vials containing 4 ml of Biosafe II scintillation cocktail, mixed and placed in a scintillation counter. Total binding was determined from the tubes containing only radiolabeled ligand.

[4] = test system: 24-hydroxylase (24Ohase) gene promoter in ROS 17/2.8 (bone) cells; assay: In vitro transcription assay (24-hydroxylase promoter luciferase reporter); type: cell-based; details: FIG. 3
Experimental: In Vitro Transcription Assay
Transcription activity was measured in ROS 17/2.8 (bone) cells that were stably transfected with a 24-hydroxylase (24Ohase) gene promoter upstream of a luciferase reporter gene (Arbour et al., 1998). Cells were given a range of doses. Sixteen hours after dosing the cells were harvested and luciferase activities were measured using a luminometer.
RLU=relative luciferase units.

| Ki ([3]; full-length recombinant rat VDR, read-out: Ki, competition with [3H]-1,25(OH)2D3 for binding to the vitamin D receptor) | binding to the vitamin D receptor as compared to 1,25-(OH)2D3 ([3]; in words) | EC50 (HL-60 cells; Homo sapiens, 96 h) | EC50 ([4]; ROS 17/2.8 cells, 24Ohase-luciferase, 16 h, read-out: EC50, transcriptional activity in bone cells) | SMILES | EC50 (HL-60 cells) | bone calcium mobilization (serum calcium levels) (Sprague-Dawley rats [1]) | intestinal calcium transport (Sprague-Dawley rats [2]; 87 pmol/day) | potency on HL-60 cell differentiation as compared to 1,25(OH)2D3 (HL-60 cells; in words) | transcriptional activity in bone cells as compared to 1α,25-dihydroxyvitamin D3 ([4]; in words) | bone calcium mobilization (Sprague-Dawley rats [1]; 2340 pmol/day ip for 4 consecutive days) | bone calcium mobilization (Sprague-Dawley rats [1]; 35100 pmol/day ip for 4 consecutive days) | intestinal calcium transport (Sprague-Dawley rats [2]; 2340 pmol/day) | intestinal calcium transport (Sprague-Dawley rats [2]; 35100 pmol/day) | intestinal calcium transport activity as compared to 1,25(OH)2D3 (Sprague-Dawley rats [2]; in words, dose not stated) |
| --- | --- | --- | --- | --- | --- | --- | --- | --- | --- | --- | --- | --- | --- | --- |
| – | – | – | – | C=C1/C(=C\C=C2/CCC[C@]3(C)[C@@H]([C@H](C)CCCC(C)(C)O)CC[C@@H]23)C[C@@H](O)C[C@@H]1O [1,25(OH)2D3, 1α,25-dihydroxyvitamin D3, reference compound] | 2 nM | increased serum calcium levels | promotes a significant increase | – | – | – | – | – | – | – |
| 0.2 nM | bound almost equally | 100 nM | 10 nM | C=C1[C@H](O)CC(=C/C=C2\CCC[C@]3(C)[C@@H]([C@@H](C)CC(F)F)CC[C@@H]23)C[C@H]1O [FF-44, (20R)-23,23-difluoro-1α-hydroxy-2-methylene-19-nor-bishomopregnacalciferol] | – | very little bone calcium mobilization activity; also recorded: little, if any, activity in mobilizing calcium from bone | – | almost as potent as 1,25(OH)2D3 | about the same transcriptional activity | did not result in mobilization of bone calcium | without any effect | does not promote intestinal calcium transport | no significant intestinal calcium transport activity | very little activity |
